Laboratory results from patent publication US20070249607A1, “NK-1 AND SEROTONIN TRANSPORTER INHIBITORS” (Bristol-Myers Squibb Company, priority 2006, published 2007).
Like-named read-outs stand apart in the source and are kept apart here.

Experiments:
[1] = biological target: T1, neurokinin-1 (NK-1) receptor (Homo sapiens, UniProt P25103); assay: NK-1 Binding assay ([125I] Substance P competition, U373 cell membranes); conditions: U373 membranes, [125I] Substance P displacement, read-out: NK-1 IC50
T1 construct: a human glioblastoma-astrocytoma cell line that endogenously expresses the neurokinin-1 (NK-1) receptor; endogenous in cells; host or cells: U373 human glioblastoma-astrocytoma cells (membranes)
Experimental: NK-1 Binding assay. U373 cells, a human glioblastoma-astrocytoma cell line that endogenously expresses the neurokinin-1 (NK-1) receptor, were grown in a monolayer culture at 37° C. in 5% CO2 and fed with Minimum Essential Medium (MEM) supplemented with 10% fetal bovine serum. Membranes were prepared as follows: Cells were washed twice with ice-cold phosphate-buffered saline (pH 7.4) and then incubated for 5-10 minutes with ice-cold 10 mM Tris buffer (pH 7.4) containing 5 mM EDTA. Cells were removed from plates, homogenized, and centrifuged at 32,000×g for 20 minutes. The resulting supernatant was discarded, and the pellet resuspended by homogenization in 50 mM Tris buffer (pH 7.4) containing 1 mM EDTA and centrifuged at 32,000×g for 20 minutes. The resulting supernatant was discarded, and the pellet resuspended by homogenization in NK-1 binding assay buffer (50 mM Tris-HCL (pH 7.4), 3 mM MnCl2, 200 μg/ml BSA, 5 μg/ml chymostatin, 40 μg/ml bacitracin and 4 μg/ml leupeptin).
On the day of an experiment the membrane preparation was thawed, homogenized and diluted with NK-1 binding assay buffer to the appropriate concentration. […] Substance P, at a concentration of […], and concentrations of drugs ranging from 10000 to 0.01 nM. Samples were incubated for 30 min at 20° C. then filtered through GF/B glass fiber filters (pretreated with 1% polyethyleneimine and 0.3% Triton X-100) using a Brandel cell harvester. The filters were then washed with 10 ml ice cold 50 mM Tris-HCL (pH 7.4) containing 3 mM MgCl2. […] The amount of radioligand bound in the presence and absence of competitor was analyzed by plotting (-)log drug concentration versus the amount of radioligand specifically bound. The midpoint of the displacement curve (IC50, nM), signifies the potency.

[2] = biological target: T2, human serotonin transporters (Homo sapiens, UniProt P31645); assay: Serotonin transporter binding assay ([3H]-citalopram competition, HEK-hSERT cell membranes)
T2 construct: expressed in transfected cells
Experimental: Serotonin transporter binding assay. HEK-293 cells that stably express human serotonin transporters (HEK-hSERT cells) were grown at 37° C. in 5% CO2 as a monolayer in medium consisting of EMEM supplemented with 10% fetal bovine serum and G418 sulfate (500 μg/ml). To prepare membranes for radioligand binding experiments, cells were rinsed twice with phosphate-buffered saline (138 mM NaCl, 4.1 mM KCl, 5.1 mM Na2PO4, 1.5 mM KH2PO4, 11.1 mM glucose, pH 7.4). Cells were transferred from plates to polypropylene tubes (16×100 mm), centrifuged at 1,200×g for 5 min and were frozen at −80° C. until assay. Following centrifugation, pellets were resuspended by homogenization in buffer consisting of 50 mM Tris (pH 7.7 at 25° C.), 120 mM NaCl and 5 mM KCl and then centrifuged at 32,000×g for 10 min. Following centrifugation, supernatants were discarded and pellets were resuspended in buffer consisting of 50 mM Tris (pH 7.4 at 25° C.), 150 mM NaCl and 5 mM KCl. Membrane homogenates (200 μl/plate) were incubated with 1 nM [^3H]-citalopram (specific activity=85 Ci/mmol) and increasing concentrations of test compounds for 1 hr at 25° C. in a total volume of 250 μl. The assay buffer consisted of 50 mM Tris (pH 7.4 at 25° C.), 120 mM NaCl and 5 mM KCl (pH 7.4 with conc. HCl). Plates were incubated for 1 hr at 25° C., then filtered through 0.5% PEI treated Whatman GF/B filters using a Brandel cell harvester. Filters were washed three times with 3 ml of ice-cold tris wash buffer. Non-specific binding was defined with 10 μM fluoxetine. Amount of radioligand bound in the presence and absence of competitor was analyzed by plotting (-)log drug concentration versus the amount of radioligand specifically bound. The midpoint of the displacement curve (IC50, nM), signifies the potency. Ki values can be calculated using the method of Cheng and Prusoff (Cheng and Prusoff, BiochemicalPharmacology, Vol 22, pp. 3099-3108, Pergamon Press (1973)).

[3] = Table 1, HEK-hSERT membranes, [3H]-citalopram displacement, read-out: SERT IC50
[4] = Table 2, HEK-hSERT membranes, [3H]-citalopram displacement, read-out: SERT IC50

T2 sequence (P31645 whole entry): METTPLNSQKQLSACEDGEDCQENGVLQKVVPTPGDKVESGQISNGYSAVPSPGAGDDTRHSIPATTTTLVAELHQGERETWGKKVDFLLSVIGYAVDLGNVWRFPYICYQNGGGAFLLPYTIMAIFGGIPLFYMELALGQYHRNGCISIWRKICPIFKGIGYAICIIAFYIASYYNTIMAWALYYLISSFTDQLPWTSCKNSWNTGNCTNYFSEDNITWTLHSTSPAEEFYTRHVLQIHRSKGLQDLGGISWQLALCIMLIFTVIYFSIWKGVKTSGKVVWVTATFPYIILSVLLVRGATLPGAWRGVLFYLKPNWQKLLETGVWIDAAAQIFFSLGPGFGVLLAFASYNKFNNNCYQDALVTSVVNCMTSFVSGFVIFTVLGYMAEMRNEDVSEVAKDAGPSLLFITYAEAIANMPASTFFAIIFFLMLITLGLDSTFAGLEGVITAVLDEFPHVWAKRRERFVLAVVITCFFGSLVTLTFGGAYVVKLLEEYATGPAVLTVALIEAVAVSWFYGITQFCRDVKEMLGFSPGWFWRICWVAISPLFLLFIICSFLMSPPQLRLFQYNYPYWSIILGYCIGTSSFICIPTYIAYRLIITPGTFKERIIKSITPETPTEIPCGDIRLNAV
T1 sequence (P25103 whole entry): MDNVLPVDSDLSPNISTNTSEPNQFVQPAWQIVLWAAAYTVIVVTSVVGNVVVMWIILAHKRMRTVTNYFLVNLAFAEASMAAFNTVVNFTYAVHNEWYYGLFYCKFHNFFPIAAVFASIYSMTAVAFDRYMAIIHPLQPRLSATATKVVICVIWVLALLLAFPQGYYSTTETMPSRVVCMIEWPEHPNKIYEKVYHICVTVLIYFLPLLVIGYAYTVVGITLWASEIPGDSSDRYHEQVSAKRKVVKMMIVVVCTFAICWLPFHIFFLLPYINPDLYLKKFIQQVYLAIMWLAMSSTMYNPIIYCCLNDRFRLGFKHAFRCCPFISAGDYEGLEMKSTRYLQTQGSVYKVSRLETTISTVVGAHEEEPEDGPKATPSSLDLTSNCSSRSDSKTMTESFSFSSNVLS

| SMILES | IC50 ([1]; Table 1) | IC50 [2, 3] | IC50 ([1]; Table 2) | IC50 [2, 4] | IC50 [2] |
| --- | --- | --- | --- | --- | --- |
| FC(F)(F)c1cc(COCC2(c3ccccc3)CCNCC2)cc(-c2ccc(N3CCOCC3)nc2)c1 | > 300 nM | 0.01 to 100 nM |  |  |  |
| N#Cc1ccc(-c2cc(COCC3(c4ccccc4)CCNCC3)cc(C(F)(F)F)c2)cn1 | 0.01 to 100 nM | 0.01 to 100 nM |  |  |  |
| FC(F)(F)c1cc(COCC2(c3ccccc3)CCNCC2)cc(-c2cc(C(F)(F)F)cc(C(F)(F)F)c2)c1 | 100 to 300 nM | 100 to 300 nM |  |  |  |
| FC(F)(F)c1cc(COCC2(c3ccccc3)CCNCC2)cc(-c2c(Cl)cccc2Cl)c1 | 100 to 300 nM | 0.01 to 100 nM |  |  |  |
| FC(F)(F)c1cc(COCC2(c3ccccc3)CCNCC2)cc(-c2cccc3c2Sc2ccccc2S3)c1 | > 300 nM | > 300 nM |  |  |  |
| FC(F)(F)c1cc(COCC2(c3ccccc3)CCNCC2)cc(-c2ccc(-c3ccccc3)cc2)c1 | 100 to 300 nM | 0.01 to 100 nM |  |  |  |
| CSc1ccc(-c2cc(COCC3(c4ccccc4)CCNCC3)cc(C(F)(F)F)c2)cc1 | 0.01 to 100 nM | 0.01 to 100 nM |  |  |  |
| Cc1ccccc1-c1cc(COCC2(c3ccccc3)CCNCC2)cc(C(F)(F)F)c1 | 100 to 300 nM | 0.01 to 100 nM |  |  |  |
| FC(F)(F)c1cc(COCC2(c3ccccc3)CCNCC2)cc(-c2ccccc2-c2ccccc2)c1 | > 300 nM | 100 to 300 nM |  |  |  |
| FC(F)(F)c1ccc(-c2cc(COCC3(c4ccccc4)CCNCC3)cc(C(F)(F)F)c2)cc1 | 0.01 to 100 nM | 0.01 to 100 nM |  |  |  |
| Cc1cc(C)cc(-c2cc(COCC3(c4ccccc4)CCNCC3)cc(C(F)(F)F)c2)c1 | > 300 nM | 0.01 to 100 nM |  |  |  |
| Cc1ccc(-c2cc(COCC3(c4ccccc4)CCNCC3)cc(C(F)(F)F)c2)cc1[N+](=O)[O-] | 0.01 to 100 nM | 0.01 to 100 nM |  |  |  |
| Fc1cccc(-c2cc(COCC3(c4ccccc4)CCNCC3)cc(C(F)(F)F)c2)c1 | 0.01 to 100 nM | 0.01 to 100 nM |  |  |  |
| FC(F)(F)c1cc(COCC2(c3ccccc3)CCNCC2)cc(-c2ccc3ccccc3c2)c1 | 100 to 300 nM | 100 to 300 nM |  |  |  |
| CCOc1cccc(-c2cc(COCC3(c4ccccc4)CCNCC3)cc(C(F)(F)F)c2)c1 | 100 to 300 nM | 0.01 to 100 nM |  |  |  |
| Fc1ccccc1-c1cc(COCC2(c3ccccc3)CCNCC2)cc(C(F)(F)F)c1 | 0.01 to 100 nM | 0.01 to 100 nM |  |  |  |
| Cn1cc(-c2cc(COCC3(c4ccccc4)CCNCC3)cc(C(F)(F)F)c2)cn1 |  |  | 0.01 to 100 nM | 0.01 to 100 nM |  |
| Fc1cnc(Cl)c(-c2cc(COCC3(c4ccccc4)CCNCC3)cc(C(F)(F)F)c2)c1 |  |  | 100 to 300 nM | 0.01 to 100 nM |  |
| FC(F)(F)c1cc(COCC2(c3ccccc3)CCNCC2)cc(-c2c(C(F)(F)F)cccc2C(F)(F)F)c1 |  |  | 0.01 to 100 nM | 0.01 to 100 nM |  |
| N#Cc1ccc(-c2cc(COCC3(c4ccccc4)CCNCC3)cc(C(F)(F)F)c2)cc1F |  |  | 0.01 to 100 nM | 0.01 to 100 nM |  |
| Cc1cc(C#N)ccc1-c1cc(COCC2(c3ccccc3)CCNCC2)cc(C(F)(F)F)c1 |  |  | 0.01 to 100 nM | 0.01 to 100 nM |  |
| N#Cc1ccc(-c2cc(COCC3(c4ccccc4)CCNCC3)cc(C(F)(F)F)c2)nc1 |  |  | 0.01 to 100 nM | 0.01 to 100 nM |  |

| SMILES | IC50 ([1]; Table 1) | IC50 [2, 3] | IC50 ([1]; Table 2) | IC50 [2, 4] | IC50 [2] |
| --- | --- | --- | --- | --- | --- |
| CN1CCC(COCc2cc(-c3ccc(Cl)cc3)cc(C(F)(F)F)c2)(c2ccccc2)CC1 |  |  | 0.01 to 100 nM |  | 0.01 to 100 nM |
| COc1ccc(-c2cc(COCC3(c4ccccc4)CCN(C)CC3)cc(C(F)(F)F)c2)cc1 |  |  | 0.01 to 100 nM |  | 0.01 to 100 nM |
| CN1CCC(COCc2cc(-c3ccc(F)cc3)cc(C(F)(F)F)c2)(c2ccccc2)CC1 |  |  | 0.01 to 100 nM |  | 0.01 to 100 nM |
| CN1CCC(COCc2cc(-c3ccc(F)c(Cl)c3)cc(C(F)(F)F)c2)(c2ccccc2)CC1 |  |  | 0.01 to 100 nM |  | 0.01 to 100 nM |
| N#Cc1ccc(-c2cc(Cl)cc(COCC3(c4ccccc4)CCNCC3)c2)cc1 |  |  | 0.01 to 100 nM | 0.01 to 100 nM |  |
| N#Cc1ccc(-c2cc(C#N)cc(COCC3(c4ccccc4)CCNCC3)c2)cc1 |  |  | 0.01 to 100 nM | 0.01 to 100 nM |  |
| CN1CCC(COCc2cc(-c3cccc(F)c3)cc(C(F)(F)F)c2)(c2ccccc2)CC1 |  |  | 0.01 to 100 nM |  | 0.01 to 100 nM |
| CN1CCC(COCc2cc(-c3ccc(F)cc3F)cc(C(F)(F)F)c2)(c2ccccc2)CC1 |  |  | 0.01 to 100 nM |  | 0.01 to 100 nM |
| COc1ccc(-c2cc(COCC3(c4ccccc4)CCN(C)CC3)cc(C(F)(F)F)c2)cc1F |  |  | 0.01 to 100 nM |  | 0.01 to 100 nM |
| C[C@H](OCC1(c2ccccc2)CCNCC1)c1cc(-c2ccc(C#N)cc2)cc(C(F)(F)F)c1 |  |  | 0.01 to 100 nM | 100 to 300 nM |  |
| N#Cc1ccc(-c2cc(F)cc(COCC3(c4ccccc4)CCNCC3)c2)cc1 |  |  | 0.01 to 100 nM | 0.01 to 100 nM |  |
| Fc1ccc(-c2cc(F)cc(COCC3(c4ccccc4)CCNCC3)c2)cc1 |  |  | > 300 nM | 0.01 to 100 nM |  |
| CN1CCC(COCc2cc(F)cc(-c3ccc(C#N)cc3)c2)(c2ccccc2)CC1 |  |  | 0.01 to 100 nM |  | 0.01 to 100 nM |
| CN1CCC(COCc2cc(F)cc(-c3ccc(F)cc3)c2)(c2ccccc2)CC1 |  |  | 100 to 300 nM |  | 0.01 to 100 nM |
| Fc1ccc(-c2cc(COCC3(c4ccc(F)cc4)CCNCC3)cc(C(F)(F)F)c2)cc1 |  |  | 0.01 to 100 nM | 0.01 to 100 nM |  |
| CN1CCC(COCc2cc(-c3ccc(F)cc3)cc(C(F)(F)F)c2)(c2ccc(F)cc2)CC1 |  |  | 0.01 to 100 nM |  | 0.01 to 100 nM |
| CC(OCC1(c2ccccc2)CCNCC1)c1cc(F)cc(-c2ccc(C#N)cc2)c1 (stereo not shown) |  |  | 0.01 to 100 nM | 0.01 to 100 nM |  |
| CCN1CCC(COCc2cc(-c3ccc(C#N)cc3)cc(C(F)(F)F)c2)(c2ccccc2)CC1 |  |  | 0.01 to 100 nM | > 300 nM |  |
| N#Cc1ccc(-c2cc(COCC3(c4ccccc4)CCN(Cc4ccccc4)CC3)cc(C(F)(F)F)c2)cc1 |  |  | 0.01 to 100 nM | > 300 nM |  |
| CC(OCC1(c2ccccc2)CCNCC1)c1cc(Cl)cc(-c2ccc(C#N)cc2)c1 (stereo not shown) |  |  | 0.01 to 100 nM | 0.01 to 100 nM |  |
| Cc1cc(COCC2(c3ccccc3)CCNCC2)cc(-c2ccc(C#N)cc2)c1 |  |  | 0.01 to 100 nM | 0.01 to 100 nM |  |
| CN(C)C(=O)c1cc(COCC2(c3ccccc3)CCNCC2)cc(-c2ccc(C#N)cc2)c1 |  |  | > 300 nM | 0.01 to 100 nM |  |
